Laboratory results: patent publication US11701332B2, “Methods and compositions for treating female sexual interest and arousal disorder” (priority 2020, dated 2023)

Legend:
[1] = cited from earlier work
[2] = tested on: libido; conditions: sublingual testosterone, short testosterone spike; cited from earlier work
[3] = tested on: libido; conditions: biological women receiving testosterone as part of gender transition therapy; cited from earlier work
[4] = biological target: peripheral androgen receptors (AR) (Homo sapiens, UniProt P10275); conditions: 450 mg darolutamide twice daily, person
Experimental: A person diagnosed with FSIAD is administered a 30 mg testosterone enanthate injection weekly, and a dose of 450 mg of darolutamide twice daily to achieve partial (90%) AR blockage peripherally, rather than total (100%) AR blockage.

[5] = in vivo; cited from earlier work
[6] = in vivo; cited from earlier work; remark: listed apart in the source
[7] = tested on: libido; conditions: after injection; cited from earlier work

Sequence of peripheral androgen receptors (AR) (P10275 whole entry): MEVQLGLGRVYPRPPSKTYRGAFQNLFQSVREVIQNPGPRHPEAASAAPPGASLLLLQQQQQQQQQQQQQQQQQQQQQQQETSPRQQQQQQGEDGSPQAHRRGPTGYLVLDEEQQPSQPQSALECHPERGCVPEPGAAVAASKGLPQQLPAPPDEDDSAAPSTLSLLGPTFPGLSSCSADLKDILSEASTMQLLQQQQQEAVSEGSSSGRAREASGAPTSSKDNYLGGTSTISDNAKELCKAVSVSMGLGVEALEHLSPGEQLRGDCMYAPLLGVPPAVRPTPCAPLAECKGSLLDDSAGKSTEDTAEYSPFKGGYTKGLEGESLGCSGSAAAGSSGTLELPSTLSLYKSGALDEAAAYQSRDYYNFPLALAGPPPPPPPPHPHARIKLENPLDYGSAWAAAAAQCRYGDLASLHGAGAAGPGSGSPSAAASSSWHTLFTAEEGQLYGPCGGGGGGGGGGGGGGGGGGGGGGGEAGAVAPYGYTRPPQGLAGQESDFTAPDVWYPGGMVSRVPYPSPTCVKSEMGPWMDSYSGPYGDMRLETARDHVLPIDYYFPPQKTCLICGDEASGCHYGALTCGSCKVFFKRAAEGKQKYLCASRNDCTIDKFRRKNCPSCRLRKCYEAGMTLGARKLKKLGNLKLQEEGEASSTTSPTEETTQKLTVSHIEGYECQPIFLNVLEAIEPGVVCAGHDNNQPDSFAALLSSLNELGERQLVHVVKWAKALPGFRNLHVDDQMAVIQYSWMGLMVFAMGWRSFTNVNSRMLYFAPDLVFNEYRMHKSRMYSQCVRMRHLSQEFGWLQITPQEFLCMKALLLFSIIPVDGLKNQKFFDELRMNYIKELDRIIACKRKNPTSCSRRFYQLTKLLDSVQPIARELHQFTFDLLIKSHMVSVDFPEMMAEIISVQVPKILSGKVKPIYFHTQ

For C[C@H]1CC(=O)C[C@@H]2CC[C@H]3[C@@H]4CC[C@H](O)[C@@]4(C)CC[C@@H]3[C@]21C [mesterolone], the oral bioavailability [1] is given as 3%.
In the case of C[C@]12CC[C@H]3[C@@H](CCC4=CC(=O)CC[C@@]43C)[C@@H]1CC[C@@H]2O [testosterone], the “time until libido boost” value [2] is listed as 3.5 h and the “women reporting an increase in libido” value [3] is listed as 71%.
In the case of CC(O)c1cc(C(=O)N[C@@H](C)Cn2ccc(-c3ccc(C#N)c(Cl)c3)n2)[nH]n1 (stereo partly drawn) [darolutamide], the AR blockage peripherally [4] is given as 90%, the adverse effects [5] is given as “does not cause major adverse effects” and the “crossing of the blood-brain barrier” value [6] is given as “do not cross the blood-brain barrier”.
In the case of CCCC[C@H](NC(C)=O)C(=O)N[C@H]1CC(=O)NCCCC[C@@H](C(=O)O)NC(=O)[C@H](Cc2c[nH]c3ccccc23)NC(=O)[C@H](CCCN=C(N)N)NC(=O)[C@@H](Cc2ccccc2)NC(=O)[C@H](Cc2cnc[nH]2)NC1=O [bremelanotide], the libido boost [7] is listed as “temporary libido boost shortly after injection”.
For CC(O)(CS(=O)(=O)c1ccc(F)cc1)C(=O)Nc1ccc(C#N)c(C(F)(F)F)c1 (stereo not drawn) [bicalutamide], the “crossing of the blood-brain barrier” value [6] is listed as “do not cross the blood-brain barrier”.
In the case of O=c1[nH]c2ccccc2n1CCN1CCN(c2cccc(C(F)(F)F)c2)CC1 [flibanserin], the adverse effects [5] is listed as “low blood pressure”.
